{"source": "paper PMC3530156", "about": "(Chemistry & biology, 2012)", "key": {"Bacillus subtilis PY79": {"tested_on": "Bacillus subtilis PY79", "assay": "MIC, overnight culture/serial dilution assay", "format": "cell-based", "settings": "overnight serial dilution culture, purified compound"}, "[1]": {"tested_on": "B. subtilis BSZ-9 (L11 knockout)", "settings": "colonies of M1152 + pSETGE1 overlaid with B. subtilis BSZ-9, resistant to 26-membered thiopeptides"}}}
{"substance": "GE37468", "values": [{"measurement": "MIC B. subtilis", "setting": "Bacillus subtilis PY79", "value": 0.016, "unit": "µg/mL"}, {"measurement": "resistance of overlaid strain", "setting": "[1]", "value": "Neither BSZ-9 nor B. cereus ATCC 15479 exhibited resistance"}]}
